The test has as its target T1, native carnitine/acylcarnitine carrier (CAC) (Rattus norvegicus, UniProt P97521).
T1 construct: the native protein extracted from rat liver mitochondria; from tissue; host or cells: rat liver mitochondria
T1 sequence (P97521 1-301): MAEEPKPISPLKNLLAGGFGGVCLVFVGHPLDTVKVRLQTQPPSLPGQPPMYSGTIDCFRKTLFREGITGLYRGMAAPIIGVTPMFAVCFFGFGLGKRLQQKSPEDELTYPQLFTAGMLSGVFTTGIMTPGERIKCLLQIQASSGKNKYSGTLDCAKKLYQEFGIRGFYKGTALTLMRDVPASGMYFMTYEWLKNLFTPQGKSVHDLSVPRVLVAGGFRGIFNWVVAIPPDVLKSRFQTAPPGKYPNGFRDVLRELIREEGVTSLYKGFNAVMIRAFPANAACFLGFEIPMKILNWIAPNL
Briefly: [3H]carnitine/carnitine antiport in proteoliposomes reconstituted with native CAC extracted from rat liver mitochondria. To be noted: intact rat liver mitochondria incubated 1 h with CuCl2 (50 µM) or GSH (5 mM), then CAC extracted and reconstituted. In kind it is biochemical. On the procedure:
Figure 2 Dose-response analysis of copper effect on the native CAC. Proteoliposomes reconstituted with the CAC extracted from rat liver mitochondria were incubated with (○) CuCl2 or (●) CuCl at the indicated concentrations for 1 min, and then the transport activity was measured by adding 0.1 mM [^3H]carnitine and stopped after 10 min as described in Materials and Methods. Percent of residual activity with respect to the control, without copper treatment, is reported. The values are the means ± SD from three independent experiments.
The recombinant CAC (WT and mutant) proteins were used for proteoliposome formation as previously described. For the experiments with the native protein, rat liver mitochondria were first purified using the standard procedure of cell disruption and differential centrifugation. […]
Transport was started by adding 0.1 mM [^3H]carnitine to proteoliposome samples and, at the indicated time interval stopped by 1.5 mM NEM. […] After terminating the transport reaction, the external substrate was removed by chromatography on Sephadex G-75 columns, and the intraliposomal radioactivity was measured. Transport was measured at 25 °C. […] Transport rates were measured in 5 min, i.e., within the initial linear range of the time course.

Regarding `N[C@@H](CCC(=O)N[C@@H](CS)C(=O)NCC(=O)O)C(=O)O` [GSH, reduced glutathione], the “effect on transport with respect to protein from untreated mitochondria” value is recorded as “did not exert any appreciable effect”.

The values above are taken from PMC7070283, “Effect of Copper on the Mitochondrial Carnitine/Acylcarnitine Carrier Via Interaction with Cys136 and Cys155. Possible Implications in Pathophysiology” (Molecules, 2020).
